The values below come from ChEMBL document CHEMBL5325446, “Design and synthesis of proteolysis-targeting chimeras (PROTACs) as degraders of glutathione peroxidase 4” (Bioorg Med Chem, 2023).

The term IC50 denotes the concentration at which inhibition is half-maximal.

For assay [1], the target named is Protein cereblon/Phospholipid hydroperoxide glutathione peroxidase GPX4 (Homo sapiens) (UniProt Q96SW2+P36969). Put plainly: PROTAC activity at CRBN/GPX4 in human MGC-803 cells assessed as induction of GPX4 degradation at 10 uM incubated for 24 hrs by Western blot analysis. It is filed as cell-based. (In western blotting, separated proteins are transferred to a membrane and probed.)
Sequence of Protein cereblon/Phospholipid hydroperoxide glutathione peroxidase GPX4 (Homo sapiens) (P36969 whole entry, looked up): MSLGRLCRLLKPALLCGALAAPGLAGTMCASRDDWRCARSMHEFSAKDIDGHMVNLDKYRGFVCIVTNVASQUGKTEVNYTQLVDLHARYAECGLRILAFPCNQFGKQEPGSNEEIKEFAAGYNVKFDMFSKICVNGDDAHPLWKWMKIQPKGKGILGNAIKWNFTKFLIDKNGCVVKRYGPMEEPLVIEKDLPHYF
Sequence of Protein cereblon/Phospholipid hydroperoxide glutathione peroxidase GPX4 (Homo sapiens) (Q96SW2 whole entry, looked up): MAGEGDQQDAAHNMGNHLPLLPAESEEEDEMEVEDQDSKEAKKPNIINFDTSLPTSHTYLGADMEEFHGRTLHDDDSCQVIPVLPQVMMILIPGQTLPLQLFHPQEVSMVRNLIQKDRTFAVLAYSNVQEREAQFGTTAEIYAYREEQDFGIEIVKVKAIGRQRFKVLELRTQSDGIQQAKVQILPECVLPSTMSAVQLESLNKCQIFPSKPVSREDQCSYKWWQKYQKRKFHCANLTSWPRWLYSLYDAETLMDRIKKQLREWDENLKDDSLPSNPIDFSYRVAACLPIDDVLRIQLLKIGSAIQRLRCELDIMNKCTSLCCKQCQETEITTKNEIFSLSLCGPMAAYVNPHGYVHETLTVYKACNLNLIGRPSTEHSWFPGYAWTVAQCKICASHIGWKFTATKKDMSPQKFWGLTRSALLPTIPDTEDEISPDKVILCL

The target in assay [2] is von Hippel-Lindau disease tumor suppressor/Phospholipid hydroperoxide glutathione peroxidase GPX4 (Homo sapiens) (UniProt P40337+P36969). The experiment in a line: PROTAC activity at VHL/GPX4 in human MGC-803 cells assessed as induction of GPX4 degradation at 10 uM incubated for 24 hrs by Western blot analysis. The assay is classed as cell-based.
Sequence of von Hippel-Lindau disease tumor suppressor/Phospholipid hydroperoxide glutathione peroxidase GPX4 (Homo sapiens) (P36969 whole entry, looked up): as the sequence (P36969 whole entry, looked up) above
Sequence of von Hippel-Lindau disease tumor suppressor/Phospholipid hydroperoxide glutathione peroxidase GPX4 (Homo sapiens) (P40337 whole entry, looked up): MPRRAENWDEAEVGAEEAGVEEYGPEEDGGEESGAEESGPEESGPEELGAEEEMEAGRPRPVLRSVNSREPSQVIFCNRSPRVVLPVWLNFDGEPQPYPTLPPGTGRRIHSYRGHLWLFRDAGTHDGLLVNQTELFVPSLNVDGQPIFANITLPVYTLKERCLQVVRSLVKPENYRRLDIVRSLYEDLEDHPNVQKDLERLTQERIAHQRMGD
The subject of assay [3] is HT-1080. Put plainly: Cytotoxicity against human HT-1080 cells assessed as cell growth inhibition incubated for 48 hrs by CCK-8 assay. The assay is classed as functional, cell-based. Conditions: HT-1080, 48 h. In general terms: Tetrazolium assays rely on reduction of a dye to a coloured formazan, in cell work by metabolically active cells.
The subject of assay [4] is HT-1080. The experiment in a line: Induction of ferroptosis in human HT-1080 cells assessed as […] accumulation at 10 uM incubated for 12 hrs by C11-BODIPY staining based flow cytometry analysis. It is filed as functional, cell-based.
Assay [5] concerns HT-1080. The experiment in a line: Induction of ferroptosis in human HT-1080 cells assessed as […] accumulation at 10 uM incubated for 24 hrs by C11-BODIPY staining based flow cytometry analysis. It is filed as functional, cell-based. (In flow cytometry, cells or beads pass a laser one at a time.)

SMILES strings stand for the structures. Activity calls are given as the source filed them. The calls are words filed in the database; no cut-off is given here.

Turning to `O=C(CCOCCNc1cccc2c1C(=O)N(C1CCC(=O)NC1=O)C2=O)NCCC(=O)Nc1ccc(N(C(=O)CCl)C(C(=O)NCCc2ccccc2)c2cccs2)cc1` (centres undefined), the Activity in assay [1] was < 10%.

Take `O=C(Cn1cc(COc2cccc3c2C(=O)N(C2CCC(=O)NC2=O)C3=O)nn1)NCCCCC(=O)Nc1ccc(N(C(=O)CCl)C(C(=O)NCCc2ccccc2)c2cccs2)cc1` (centres undefined): the Activity in assay [2] was < 10%.

On to `O=C(CCOCCNc1cccc2c1C(=O)N(C1CCC(=O)NC1=O)C2=O)NCCCCCCC(=O)Nc1ccc(N(C(=O)CCl)C(C(=O)NCCc2ccccc2)c2cccs2)cc1` (centres undefined), for which the Activity in assay [1] is < 10%.

Take `O=C(CCOCCNc1cccc2c1CN(C1CCC(=O)NC1=O)C2=O)NCCC(=O)Nc1ccc(N(C(=O)CCl)C(C(=O)NCCc2ccccc2)c2cccs2)cc1` (centres undefined): the Activity in assay [1] was < 10%.

For the compound `C=C(F)C(=O)N(c1ccc(NC(=O)CCOCCNC(=O)CCOCCNc2cccc3c2C(=O)N(C2CCC(=O)NC2=O)C3=O)cc1)C(C(=O)NCCc1ccccc1)c1cccs1` (centres undefined), the Activity in assay [2] was < 10%.

`O=C(CCOCCOCCNc1cccc2c1C(=O)N(C1CCC(=O)NC1=O)C2=O)NCCOCCC(=O)Nc1ccc(N(C(=O)CCl)C(C(=O)NCCc2ccccc2)c2cccs2)cc1` (centres undefined): the Activity in assay [1] turned out to be 16.4%.

Take `COc1ccc(N(C(=O)CCl)C(C(=O)NCCc2ccccc2)c2ccc(NC(=O)CCOCCOCCOCCNc3cccc4c3C(=O)N(C3CCC(=O)NC3=O)C4=O)cc2)cc1Cl` (centres undefined): in assay [2], the Activity was < 10%.

`O=C1CCC(N2C(=O)c3cccc(NCCOCCOCCOCCC(=O)Nc4ccc(N(C(=O)CCl)C(C(=O)NCCc5ccccc5)c5cccs5)cc4)c3C2=O)C(=O)N1` (centres undefined): in assay [1], the Activity stood at 19.4%.

On to `Cc1ncsc1-c1ccc([C@H](C)NC(=O)[C@@H]2C[C@@H](O)CN2C(=O)[C@@H](NC(=O)CCCCCCCC(=O)Nc2ccc(N(C(=O)CCl)C(C(=O)NCCc3ccccc3)c3cccs3)cc2)C(C)(C)C)cc1` (some centres undefined), for which the Activity in assay [2] stood at 21%.

`O=C(CCOCCNc1cccc2c1C(=O)N(C1CCC(=O)NC1=O)C2=O)NC(=O)Nc1ccc(N(C(=O)CCl)C(C(=O)NCCc2ccccc2)c2cccs2)cc1` (centres undefined): in assay [1], the Activity was < 10%.

For `O=C(CCOCCNc1cccc2c1C(=O)N(C1CCC(=O)NC1=O)C2=O)NCCOCCOCCC(=O)Nc1ccc(N(C(=O)CCl)C(C(=O)NCCc2ccccc2)c2cccs2)cc1` (centres undefined), in assay [1], the Activity is < 10%.

Turning to `O=C(CCOCCNc1cccc2c1CN(C1CCC(=O)NC1=O)C2=O)NCCCC(=O)Nc1ccc(N(C(=O)CCl)C(C(=O)NCCc2ccccc2)c2cccs2)cc1` (centres undefined), the Activity in assay [1] is < 10%.

On to `O=C1CCC(N2C(=O)c3cccc(OCC(=O)Nc4ccc(N(C(=O)CCl)C(C(=O)NCCc5ccccc5)c5cccs5)cc4)c3C2=O)C(=O)N1` (centres undefined), for which, in assay [1], the Activity was < 10%. In addition, the IC50 in assay [3] is 11.9 µM. Further, the result in assay [4] and in assay [5] was Active.

Consider `O=C1CCC(N2C(=O)c3cccc(NCCOCCOCCOCCOCCC(=O)N4CCN(CC(=O)Nc5ccc(N(C(=O)CCl)C(C(=O)NCCc6ccccc6)c6cccs6)cc5)CC4)c3C2=O)C(=O)N1` (centres undefined), for which the Activity in assay [1] stood at 19.9%.

For the compound `O=C(CCOCCNc1cccc2c1C(=O)N(C1CCC(=O)NC1=O)C2=O)NCCCC(=O)Nc1ccc(N(C(=O)CCl)C(C(=O)NCCc2ccccc2)c2cccs2)cc1` (centres undefined), in assay [1], the Activity came to 33.8%. Besides, the half-maximal inhibitory concentration (IC50) in assay [3] is 37.7 µM.

As to `O=C1CCC(N2C(=O)c3cccc(NCCOCCC(=O)N4CCN(CC(=O)Nc5ccc(N(C(=O)CCl)C(C(=O)NCCc6ccccc6)c6cccs6)cc5)CC4)c3C2=O)C(=O)N1` (centres undefined), the Activity in assay [1] was determined as 33%. In assay [3], the IC50 worked out at 11.7 µM. For the same compound, the result in assay [4] and in assay [5] was Active.

Consider `Cc1ncsc1-c1ccc([C@@H](C)NC(=O)[C@@H]2C[C@@H](O)CN2C(=O)[C@@H](NC(=O)CCCCCC(=O)Nc2ccc(N(C(=O)CCl)C(C(=O)NCCc3ccccc3)c3cccs3)cc2)C(C)(C)C)cc1` (some centres undefined), for which the Activity in assay [2] is < 10%.

As to `O=C(CCOCCNc1cccc2c1C(=O)N(C1CCC(=O)NC1=O)C2=O)NCCCCC(=O)Nc1ccc(N(C(=O)CCl)C(C(=O)NCCc2ccccc2)c2cccs2)cc1` (centres undefined), the Activity in assay [1] is < 10%.

Consider `O=C1CCC(N2C(=O)c3cccc(NCCOCCOCCC(=O)N4CCN(CC(=O)Nc5ccc(N(C(=O)CCl)C(C(=O)NCCc6ccccc6)c6cccs6)cc5)CC4)c3C2=O)C(=O)N1` (centres undefined), for which, in assay [1], the Activity was 18.2%.

In the case of `O=C(CCOCCNc1cccc2c1C(=O)N(C1CCC(=O)NC1=O)C2=O)NCCCCCC(=O)Nc1ccc(N(C(=O)CCl)C(C(=O)NCCc2ccccc2)c2cccs2)cc1` (centres undefined), the Activity in assay [1] turned out to be 18%. For the same compound, the 50% inhibitory concentration (IC50) in assay [3] came to 31.8 µM.

In the case of `COc1ccc(N(C(=O)CCl)C(C(=O)NCCc2ccccc2)c2ccc(NC(=O)CCOCCNC(=O)CCOCCNc3cccc4c3C(=O)N(C3CCC(=O)NC3=O)C4=O)cc2)cc1Cl` (centres undefined), the Activity in assay [2] was found to be 39.2%. For the same compound, in assay [3], the IC50 was found to be 13 µM.

Turning to `COc1ccc(N(C(=O)CCl)C(C(=O)NCCc2ccccc2)c2ccc(NC(=O)CCOCCNc3cccc4c3C(=O)N(C3CCC(=O)NC3=O)C4=O)cc2)cc1Cl` (centres undefined), in assay [2], the Activity was found to be 28.7%.

For `O=C1CCC(N2C(=O)c3cccc(NCCOCCOCCOCCC(=O)N4CCN(CC(=O)Nc5ccc(N(C(=O)CCl)C(C(=O)NCCc6ccccc6)c6cccs6)cc5)CC4)c3C2=O)C(=O)N1` (centres undefined), in assay [1], the Activity was < 10%.

Turning to `Cc1ncsc1-c1ccc([C@H](C)NC(=O)[C@@H]2C[C@@H](O)CN2C(=O)[C@@H](NC(=O)CCCCC(=O)Nc2ccc(N(C(=O)CCl)C(C(=O)NCCc3ccccc3)c3cccs3)cc2)C(C)(C)C)cc1` (some centres undefined), the Activity in assay [2] was < 10%.

Turning to `O=C1CCC(N2C(=O)c3cccc(NCCOCCOCCOCCOCCC(=O)Nc4ccc(N(C(=O)CCl)C(C(=O)NCCc5ccccc5)c5cccs5)cc4)c3C2=O)C(=O)N1` (centres undefined), in assay [1], the Activity was 14.5%.

Regarding `O=C1CCC(N2C(=O)c3cccc(OCC(=O)N4CCN(CC(=O)Nc5ccc(N(C(=O)CCl)C(C(=O)NCCc6ccccc6)c6cccs6)cc5)CC4)c3C2=O)C(=O)N1` (centres undefined), the Activity in assay [1] is < 10%.

Regarding `COc1ccc(N(C(=O)CCl)C(C(=O)NCCc2ccccc2)c2ccc(NC(=O)CCOCCOCCNc3cccc4c3C(=O)N(C3CCC(=O)NC3=O)C4=O)cc2)cc1Cl` (centres undefined), in assay [2], the Activity is < 10%.

As for `Cc1ncsc1-c1ccc([C@H](C)NC(=O)[C@@H]2C[C@@H](O)CN2C(=O)[C@@H](NC(=O)CCCCC(=O)N2CCN(CC(=O)Nc3ccc(N(C(=O)CCl)C(C(=O)NCCc4ccccc4)c4cccs4)cc3)CC2)C(C)(C)C)cc1` (some centres undefined), the Activity in assay [2] is < 10%.

For `Cc1ncsc1-c1ccc([C@H](C)NC(=O)[C@@H]2C[C@@H](O)CN2C(=O)[C@@H](NC(=O)CCCCCCCCCC(=O)Nc2ccc(N(C(=O)CCl)C(C(=O)NCCc3ccccc3)c3cccs3)cc2)C(C)(C)C)cc1` (some centres undefined), the Activity in assay [2] was < 10%.

As to `O=C(CCOCCNc1cccc2c1C(=O)N(C1CCC(=O)NC1=O)C2=O)NCCOCCC(=O)Nc1ccc(N(C(=O)CCl)C(C(=O)NCCc2ccccc2)c2cccs2)cc1` (centres undefined), in assay [1], the Activity was found to be 30.1%. For the same compound, in assay [3], the IC50 came to 29.2 µM.

Take `Cc1ncsc1-c1ccc([C@H](C)NC(=O)[C@@H]2C[C@@H](O)CN2C(=O)[C@@H](NC(=O)CCCCCCCCC(=O)Nc2ccc(N(C(=O)CCl)C(C(=O)NCCc3ccccc3)c3cccs3)cc2)C(C)(C)C)cc1` (some centres undefined): the Activity in assay [2] was 28.6%.

As for `Cc1ncsc1-c1ccc([C@H](C)NC(=O)[C@@H]2C[C@@H](O)CN2C(=O)[C@@H](NC(=O)CCCCCCC(=O)Nc2ccc(N(C(=O)CCl)C(C(=O)NCCc3ccccc3)c3cccs3)cc2)C(C)(C)C)cc1` (some centres undefined), the Activity in assay [2] was determined as 45%. In addition, the result in assay [4] was inactive. For the same compound, the result in assay [5] was Active.
